Results published in patent US5663205A, “Pharmaceutical composition for use in glaucoma treatment” (Senju Pharmaceutical Co. Ltd., priority 1992, dated 1997).

How the values were obtained:
α-adrenergic = details: cited from earlier work
β-adrenergic = details: cited from earlier work
cornea = assay: Test Example 7 (2)(d): observation on fluorescein-dyed spots of the cornea; format: in vivo, Japanese white rabbits; details: 1% and 0.5% ophthalmic solutions, 28 days
Method: (2) Ocular local toxicity test in rabbits of 1.0% and 0.5% ophthalmic solutions of amosulalol hydrochloride by consecutive instillation for 28 days: With 15 male Japanese white rabbits divided into 3 groups each consisting of 5 rabbits, 1.0% and 0.5% ophthalmic solutions of amosulalol hydrochloride as well as physiological saline as a control were applied in one drop (0.05 ml) per time to the right eye of each rabbit alone, four times a day at a regular interval of 2.5 hours, for 28 days consecutively with the left eye being left untreated. (d) Observation on fluorescein-dyed spots of the cornea: Before instillation of 1.0% and 0.5% ophthalmic solutions of amosulalol hydrochloride as well as on the day (Day 1) of initiating the instillation and on the 2nd, 4th, 7th, 14th, 21st, 28th days after initiating the instillation but each time after completion of such instillation, and on the morning of the last instillation (29th day), 10 μl of 0.1% aqueous fluorescein solution was applied topically to the eyes of each test animal, and observation was performed on the abrasion of the corneal epithelial cells with a photo-slit lamp.

[1] = Test Example 6: freeze-thaw test, precipitation of crystals; format: physicochemical; details: 0.5% aqueous solution (pH 5.5), left standing at room temperature
Method: Investigation on the Processing of Amosulalol Hydrochloride into Ophthalmic Solution: Freeze-Thaw Test (Investigation on a Stabilizing Agent for the Ophthalmic Solution of Amosulalol Hydrochloride)
Consequently, investigation was conducted on a stabilizing agent intended for use in the case of such freezing.
0.5% aqueous solution of amosulalol hydrochloride (pH 5.5), after being admixed with each of the stabilizing agents (Nos. 1 to 5) as described in Table 1 shown below, was filled into a glass ampoule of 5 ml capacity, frozen at -30° C. and left standing at room temperature to conduct inspection for the presence of crystals in it.

pupil diameter [2] = assay: Test Example 1 (2): pupil diameter, pigmented rabbits; format: in vivo, pigmented rabbits (Dutch belted rabbits); details: treated eyes, 0.5 to 6 hours after topical application
Method: Male pigmented rabbits (Dutch belted rabbits) weighing about 2 kg, after having been confirmed to be free from ocular abnormalities; were bred in a breeding room maintained at a temperature of 24± 4° C. and at a relative humidity of 55± 15%, while they were given solid food (Labo RG-RO manufactured by Nihon Nohsan Kogyo K.K.) at a daily rate of 100 g per rabbit and allowed free access to tap water as drinking water. As a test drug, amosulalol hydrochloride was processed into 0.05% (hereinafter, the term "%" is to be understood to designate "w/v %") and 1.0% aqueous solutions which were used in the test, and 0.5% timolol maleate ophthalmic solution [Timoptol (registered trademark): Ban-yu Pharmaceutical Co.] and physiological saline were used as a positive control drug and a control substance, respectively. (2) Measurement of pupil diameter: With each of the rabbits as used under the above item (1), pupil diameter was measured for both eyes using a micrometer caliper, before instillation and 0.5, 1, 2, 3, 4, and 6 hours after topical application of the individual test drugs and physiological saline, respectively.

pupil diameter [3] = assay: Test Example 2 (2): pupil diameter, pigmented rabbits; format: in vivo, pigmented rabbits (Dutch belted rabbits); details: 0.5% aqueous solution (FIG. 4), 0.5 to 6 hours
Method: Forty (40) male pigmented rabbits (Dutch belted rabbits) weighing about 2 kg, after having been confirmed to be free from ocular abnormalities, were bred in a breeding room maintained at a temperature of 24± 4° C. and at a relative humidity of 55± 15%, while they were fed solid food (Labo RG-RO, manufactured by Nihon Nohsan Kogyo K.K.) at a daily rate of 100 g per rabbit and allowed free access to tap water as drinking water. As a test drug, amosulalol hydrochloride was processed into 0.05%, 0.5% and 1.0% aqueous solutions which were used in the test, and 0.5% timolol maleate ophthalmic solution [Timoptol (registered trademark): Ban-yu Pharmaceutical Co.] and physiological saline were used as a positive control drug and a control substance, respectively. (2) Measurement of pupil diameter: With each of the rabbits as used under the above item (1), pupil diameter was measured for both eyes using a micrometer caliper, before instillation and 0.5, 1, 2, 3, 4, and 6 hours after topical application of the respective test drugs and physiological saline, respectively. […] The signs "a" and "c" designate physiological saline, 0.5% aqueous solution of amosulalol hydrochloride, respectively.

[4] = system: Normal Intraocular Pressure; assay: Test Example 1 (1): intraocular pressure reducing activity on normal intraocular pressure, pigmented rabbits; format: in vivo, pigmented rabbits (Dutch belted rabbits)
Method: Intraocular Pressure Reducing Activity of Amosulalol Hydrochloride on Normal Intraocular Pressure in Pigmented Rabbits Male pigmented rabbits (Dutch belted rabbits) weighing about 2 kg, after having been confirmed to be free from ocular abnormalities; were bred in a breeding room maintained at a temperature of 24± 4° C. and at a relative humidity of 55± 15%, while they were given solid food (Labo RG-RO manufactured by Nihon Nohsan Kogyo K.K.) at a daily rate of 100 g per rabbit and allowed free access to tap water as drinking water. As a test drug, amosulalol hydrochloride was processed into 0.05% (hereinafter, the term "%" is to be understood to designate "w/v %") and 1.0% aqueous solutions which were used in the test, and 0.5% timolol maleate ophthalmic solution [Timoptol (registered trademark): Ban-yu Pharmaceutical Co.] and physiological saline were used as a positive control drug and a control substance, respectively. (1) Measurement of intraocular pressure: Thirty two (32) rabbits were divided into four groups each consisting of 8 rabbits, and 50 μl of test drugs as well as the control drug and physiological saline were applied topically to one eye each of the individual rabbits, with the other being left untreated. Before instillation and 0.5, 1, 2, 3, 4, 6 and 8 hours after topical application,intraocular pressure for both of eyes of each rabbit was measured using a Pneumatonograph (manufactured by Alcon Co. Hereinafter referred to briefly as "PTG"). Shown in FIG. 1 are time-course changes of intraocular pressure taken with the eyes treated by instillation of each of the test drugs, control drug and physiological saline, with time (hour) after instillation taken as abscissa and intraocular pressure (mmHg as ordinate; each value in mean±S.E. (number of cases is 8). The signs "a", "b", "d" and "e" designate physiological saline, 0.05% aqueous solution of amosulalol hydrochloride, 1.0% aqueous solution of amosulalol hydrochloride, and 0.5% ophthalmic solution of timolol maleate, respectively.

## COc1ccccc1OCCNCC(O)c1ccc(C)c(S(N)(=O)=O)c1.Cl (stereo not drawn) [amosulalol hydrochloride, 5-[1-hydroxy-2-[2-(2-methoxyphenoxy)ethylamino]ethyl]-2-methylbenzenesulfonamide hydrochloride]
α-adrenergic
  α-adrenergic blocking activity: exhibit both α-adrenergic and β-adrenergic blocking activities
β-adrenergic
  β-adrenergic blocking activity: exhibit both α-adrenergic and β-adrenergic blocking activities
cornea
  observation of fluorescein-dyed spots in the cornea: no abnormalities
[1]
  dissolution of crystals after freezing: did not allow the crystals to dissolve
Pupil diameter [2]
  change in pupil diameter: no significant change in the pupil diameter
Pupil diameter [3]
  change in pupil diameter: no significant change in the pupil diameter
[4]; 0.05% aqueous solution, 2 hours after topical application
  maximum decrease in intraocular pressure: 3.6 mmHg
[4]; 1.0% aqueous solution, 50 μl topical, 3 hours after instillation
  maximum decrease in intraocular pressure: 9.0 mmHg
[4]; 1.0% aqueous solution, sustained from 30 min after instillation
  decrease in intraocular pressure sustained until (time after instillation): 6 h
